Values of other authors in patent US20060105961A1 (Pharmacia Corporation, priority 2002, published 2006).

Tested on: tumor
Settings: mice after radiotherapy

COc1ccc2c(c1)c(CC(=O)O)c(C)n2C(=O)c1ccc(Cl)cc1 [indomethacin]
tumor cure rate: increases the tumor cure rate | tumor growth delay: prolongs tumor growth delay
